Assays:
[1] = The drug is tested on Z-006 corresponding to mouse gut metagenome with ENA study accession number: PRJEB37062 and ENA sample accession number: ERS12561806 for biotransformation under anaerobic condition. The drug concentrations were measured over 9 timepoints collected between 0 and 24 hours of incubation by liquid-chromatography-coupled mass spectrometry (LC–MS); details: 2 µM
[2] = The drug is tested on Z-012 corresponding to metagenome with ENA study accession number: PRJEB37062 and ENA sample accession number: ERS12561812 for biotransformation under anaerobic condition. The drug concentrations were measured over 9 timepoints collected between 0 and 24 hours of incubation by liquid-chromatography-coupled mass spectrometry (LC–MS); details: 2 µM
[3] = human gut metagenome, 24 h, 2 µM
[4] = The drug is tested on Z-002 corresponding to rabbit gut metagenome with ENA study accession number: PRJEB37062 and ENA sample accession number: ERS12561802 for biotransformation under anaerobic condition. The drug concentrations were measured over 9 timepoints collected between 0 and 24 hours of incubation by liquid-chromatography-coupled mass spectrometry (LC–MS); details: 2 µM
[5] = The drug is tested on WLS-170 corresponding to human gut metagenome with ENA study accession number: PRJEB37062 and ENA sample accession number: ERS12561762 for biotransformation under anaerobic condition. The drug concentrations were measured over 9 timepoints collected between 0 and 24 hours of incubation by liquid-chromatography-coupled mass spectrometry (LC–MS); details: 2 µM
[6] = The drug is tested on Z-024 corresponding to pig gut metagenome with ENA study accession number: PRJEB37062 and ENA sample accession number: ERS12561823 for biotransformation under anaerobic condition. The drug concentrations were measured over 9 timepoints collected between 0 and 24 hours of incubation by liquid-chromatography-coupled mass spectrometry (LC–MS); details: 2 µM
[7] = human gut metagenome, 24 h, 2 µM; remark: listed apart in the source
[8] = human gut metagenome, 24 h, 2 µM; remark: listed apart in the source
[9] = human gut metagenome, 24 h, 2 µM; remark: listed apart in the source
Further: call rule not given here.

| SMILES | Bacterial Biotransformation [1] | Bacterial Biotransformation [2] | Bacterial Biotransformation [3] | Bacterial Biotransformation [4] | Bacterial Biotransformation [5] | Bacterial Biotransformation [6] | Bacterial Biotransformation [7] | Bacterial Biotransformation [8] | Bacterial Biotransformation [9] |
| --- | --- | --- | --- | --- | --- | --- | --- | --- | --- |
| CSc1ccc2c(c1)C(N1CCN(C)CC1)Cc1ccccc1S2.O=C(O)/C=C\C(=O)O (stereo not drawn) | Compound metabolized | Compound NOT metabolized | Compound NOT metabolized | Compound metabolized | Compound metabolized | Compound metabolized | Compound NOT metabolized |  |  |
| CCN(CC)C(=O)C1(c2ccccc2)CC1CN (stereo not drawn) | Compound NOT metabolized | Compound NOT metabolized | Compound NOT metabolized | Compound NOT metabolized | Compound metabolized | Compound NOT metabolized | Compound NOT metabolized | Compound NOT metabolized | Compound NOT metabolized |
| Nc1nc(NC2CC2)c2ncn([C@H]3C=C[C@@H](CO)C3)c2n1.Nc1nc(NC2CC2)c2ncn([C@H]3C=C[C@@H](CO)C3)c2n1.O=S(=O)(O)O [ABACAVIR SULFATE] | Compound NOT metabolized | Compound NOT metabolized | Compound NOT metabolized | Compound metabolized | Compound metabolized | Compound NOT metabolized | Compound metabolized | Compound metabolized | Compound metabolized |
| CCN(CC)CCNC(=O)c1ccc(NC(C)=O)cc1 [ACECAINIDE] | Compound NOT metabolized | Compound NOT metabolized | Compound NOT metabolized | Compound metabolized | Compound metabolized | Compound NOT metabolized | Compound NOT metabolized | Compound NOT metabolized | Compound metabolized |
| CCc1oc2ccccc2c1C(=O)c1cc(Br)c(O)c(Br)c1 [BENZBROMARONE] | Compound NOT metabolized | Compound NOT metabolized | Compound metabolized | Compound metabolized | Compound metabolized | Compound NOT metabolized | Compound NOT metabolized |  | Compound metabolized |
| CN1C[C@H](C(=O)N[C@]2(C)O[C@@]3(O)[C@@H]4CCCN4C(=O)[C@H](Cc4ccccc4)N3C2=O)C[C@@H]2c3cccc4[nH]cc(c34)C[C@H]21.CS(=O)(=O)O [DIHYDROERGOTAMINE MESYLATE] | Compound NOT metabolized | Compound NOT metabolized |  | Compound metabolized |  | Compound metabolized |  |  |  |
| CCOC(=O)[C@H](CCc1ccccc1)N[C@@H](C)C(=O)N1CCC[C@H]1C(=O)O.O=C(O)/C=C\C(=O)O [ENALAPRIL MALEATE] | Compound NOT metabolized |  | Compound NOT metabolized | Compound metabolized | Compound NOT metabolized | Compound metabolized | Compound NOT metabolized | Compound NOT metabolized | Compound NOT metabolized |
| CN1[C@@H]2CC[C@H]1C[C@@H](OC(=O)[C@H](CO)c1ccccc1)C2 [HYOSCYAMINE] |  | Compound NOT metabolized |  |  | Compound metabolized | Compound NOT metabolized |  |  | Compound metabolized |
| Cc1ccc(NC(=O)c2ccc(CN3CCN(C)CC3)cc2)cc1Nc1nccc(-c2cccnc2)n1 [IMATINIB] | Compound NOT metabolized | Compound NOT metabolized |  | Compound NOT metabolized |  | Compound NOT metabolized |  |  |  |
| C#C[C@]1(OC(C)=O)CC[C@H]2[C@@H]3CCC4=CC(=O)CC[C@@H]4[C@H]3CC[C@@]21C [NORETHINDRONE ACETATE] | Compound metabolized |  |  | Compound metabolized | Compound metabolized | Compound metabolized | Compound metabolized |  |  |
| Cc1cc2c(s1)Nc1ccccc1N=C2N1CCN(C)CC1 [OLANZAPINE] | Compound NOT metabolized | Compound NOT metabolized | Compound NOT metabolized | Compound metabolized |  | Compound NOT metabolized | Compound metabolized | Compound NOT metabolized | Compound metabolized |
| CC(=O)O[C@H]1C(=O)[C@@]2(C)[C@H]([C@H](OC(=O)c3ccccc3)[C@]3(O)C[C@H](OC(=O)[C@H](O)[C@@H](NC(=O)c4ccccc4)c4ccccc4)C(C)=C1C3(C)C)[C@]1(OC(C)=O)CO[C@@H]1C[C@@H]2O [PACLITAXEL] | Compound NOT metabolized | Compound NOT metabolized | Compound NOT metabolized | Compound metabolized | Compound NOT metabolized | Compound metabolized | Compound NOT metabolized |  | Compound NOT metabolized |
| CC(=O)OCC(=O)NCCCOc1cccc(CN2CCCCC2)c1 [ROXATIDINE ACETATE] | Compound metabolized | Compound metabolized | Compound metabolized |  |  | Compound metabolized | Compound metabolized | Compound metabolized | Compound metabolized |
| CCCCCNC(=N)N/N=C/c1c[nH]c2ccc(OC)cc12.O=C(O)/C=C\C(=O)O [TEGASEROD MALEATE] | Compound NOT metabolized | Compound NOT metabolized | Compound NOT metabolized | Compound NOT metabolized | Compound metabolized | Compound metabolized | Compound NOT metabolized | Compound metabolized |  |
